No end group written: not given here.

This experiment concerns the target APC (Homo sapiens, UniProt P04070). Description: APC-catalyzed inactivation of Factor Va, residual Va by prothrombinase assay. The format is biochemical. Details: Protein C consists of a 155 amino acid residue light chain and a 262 amino acid residue heavy chain; from tissue; Factor Va a gift (Tans and Rosing, Univ. of Limburg). The method, then:
The APC catalyzed inactivation of Factor Va assays were performed in 96-well flat bottom ELISA plates (Stockwell Scientific, Walnut, Calif.). The reactions were performed either in the presence or absence of phospholipid vesicles to determine if either PC311-325 or PC142-155 inhibited APC anticoagulant activity by inhibiting the binding of APC or its substrate to phospholipids or if it was independent of phospholipid surfaces. This determination was relevant in light of reports that the assembly of APC with its substrates Va and VIIIa on the phospholipid surface appeared to be mediated mainly by the Gla-domain of APC in the presence of calcium which was crucial for exerting significant anticoagulant activity. [Sugo et al., J. Biol. Chem., 260:10453-10457 (1985); […] et al., J. Biol. Chem., 261:9684-9693 (1986); Solymoss et al., J. Biol. Chem., 263:14884-14890 (1988)]. For the preparation of phospholipid residues for use in the assay bovine brain phosphatidylserine in chloroform […]/methanol (CH3 OH) and soybean phosphatidylcholine (Type III-S, CCl4 solution) were purchased from Sigma and were reported to be at least 98% homogeneous (supplier's estimates). To prepare vesicles, phosphatidylserine was admixed with phosphatidylcholine (20% phosphatidylserine/80% phosphatidylcholine; M/M) and the organic solvent evaporated under a stream of nitrogen. The resultant phospholipid admixture was resuspended in 0.05 M TBS-Az at pH 7.4 as a 1.25 mM solution by vortexing. Single bilayer vesicles were obtained during sonication by direct probe (Heat-Systems-Ultrasonics, Inc., […] Sonicator) for 6×30 second bursts at 30 W in 2 minute intervals at 4° C. The reaction buffer consisted of 0.05 M Tris-HCl, at pH 7.4 containing 0.1 M NaCl, 0.02% NaN3, 0.5% BSA and 2.5 mM CaCl2. […] M/M) either at 22° C. (in the presence of phospholipids) or at 37° C. (in the absence of phospholipids). […] The monoclonal antibody C3 which specifically recognizes the light-chain of PC as well as APC was prepared as in Example 2. Factor Va (a gift from Drs. Tans and Rosing, Univ. of Limburg, the Netherlands) was first admixed with or without PC311-325 or PC142-155 and maintained for 20 minutes either at 22° C. or at 37° C. prior to admixture with APC. […] Factor Va was determined via its cofactor activity in the activation of prothrombin by Factor Xa. […] The molar concentration of Factor Xa was determined by active site titration as described by Chase et al., Biochem. Biophys. […]

Chain of APC (P12259 29-737 partner limits assumed): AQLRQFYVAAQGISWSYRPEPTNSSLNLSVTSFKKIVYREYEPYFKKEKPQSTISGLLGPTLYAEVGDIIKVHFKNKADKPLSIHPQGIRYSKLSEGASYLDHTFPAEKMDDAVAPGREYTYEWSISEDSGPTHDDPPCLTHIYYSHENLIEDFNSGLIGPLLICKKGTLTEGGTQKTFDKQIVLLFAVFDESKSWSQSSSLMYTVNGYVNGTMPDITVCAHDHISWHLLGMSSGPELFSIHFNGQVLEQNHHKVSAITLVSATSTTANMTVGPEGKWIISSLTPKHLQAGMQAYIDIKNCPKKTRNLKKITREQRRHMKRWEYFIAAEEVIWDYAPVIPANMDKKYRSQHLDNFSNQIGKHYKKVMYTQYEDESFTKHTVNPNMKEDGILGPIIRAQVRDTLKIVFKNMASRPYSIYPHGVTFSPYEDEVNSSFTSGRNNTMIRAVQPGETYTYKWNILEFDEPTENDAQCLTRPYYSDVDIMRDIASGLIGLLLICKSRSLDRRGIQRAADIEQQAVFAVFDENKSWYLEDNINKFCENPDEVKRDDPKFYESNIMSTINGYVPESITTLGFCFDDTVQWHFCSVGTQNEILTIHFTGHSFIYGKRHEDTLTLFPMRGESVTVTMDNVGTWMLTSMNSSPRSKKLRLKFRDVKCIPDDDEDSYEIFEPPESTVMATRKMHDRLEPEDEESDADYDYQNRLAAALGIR
Chain of APC (P12259 1574-2224 partner limits assumed): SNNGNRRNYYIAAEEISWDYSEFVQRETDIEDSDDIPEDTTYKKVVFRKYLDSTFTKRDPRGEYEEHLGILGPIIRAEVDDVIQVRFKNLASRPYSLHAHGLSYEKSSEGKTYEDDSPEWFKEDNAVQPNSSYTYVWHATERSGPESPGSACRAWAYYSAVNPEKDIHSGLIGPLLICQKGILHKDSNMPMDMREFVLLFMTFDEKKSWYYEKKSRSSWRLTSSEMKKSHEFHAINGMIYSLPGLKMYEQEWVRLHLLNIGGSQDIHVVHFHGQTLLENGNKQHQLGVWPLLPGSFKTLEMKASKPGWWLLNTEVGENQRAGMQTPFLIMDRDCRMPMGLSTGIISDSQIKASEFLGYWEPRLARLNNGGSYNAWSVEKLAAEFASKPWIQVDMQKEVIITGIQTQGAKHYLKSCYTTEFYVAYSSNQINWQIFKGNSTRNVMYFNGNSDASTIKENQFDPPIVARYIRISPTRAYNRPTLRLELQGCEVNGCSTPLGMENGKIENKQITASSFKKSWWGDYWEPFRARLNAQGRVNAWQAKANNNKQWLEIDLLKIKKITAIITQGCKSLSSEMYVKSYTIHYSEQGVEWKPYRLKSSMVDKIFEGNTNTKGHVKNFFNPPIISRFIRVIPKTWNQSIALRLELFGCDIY
Chain of APC (P04070 43-197 limits assumed): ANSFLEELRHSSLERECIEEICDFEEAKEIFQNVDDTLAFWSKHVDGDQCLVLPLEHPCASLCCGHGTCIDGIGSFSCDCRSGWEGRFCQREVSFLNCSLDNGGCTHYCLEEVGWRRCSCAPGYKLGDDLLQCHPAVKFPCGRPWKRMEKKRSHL
Chain of APC (P04070 212-450 limits assumed): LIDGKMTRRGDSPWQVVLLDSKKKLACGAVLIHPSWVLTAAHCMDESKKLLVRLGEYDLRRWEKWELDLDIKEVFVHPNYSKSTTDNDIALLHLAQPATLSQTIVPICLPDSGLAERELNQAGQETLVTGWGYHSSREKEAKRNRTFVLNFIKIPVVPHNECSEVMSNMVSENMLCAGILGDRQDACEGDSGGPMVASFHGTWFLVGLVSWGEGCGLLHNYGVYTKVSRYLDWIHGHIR

The inhibition is the drop in the measured response relative to a control, in per cent. As for `CSCC[C@H](NC(=O)[C@H](CCCNC(=N)N)NC(=O)[C@H](CCCCN)NC(=O)[C@H](Cc1c[nH]c2ccccc12)NC(=O)[C@@H]1CCCN1C(=O)[C@H](CCCNC(=N)N)NC(=O)CN)C(=O)N[C@@H](CCC(=O)O)C(=O)N[C@@H](CCCCN)C(=O)N[C@@H](CCCCN)C(=O)N[C@@H](CCCNC(=N)N)C(=O)N[C@@H](CO)C(=O)N[C@@H](Cc1c[nH]cn1)C(=O)N[C@@H](CC(C)C)C(=O)N[C@@H](CS)C(N)=O` [PC142-155, Gly-Arg-Pro-Trp-Lys-Arg-Met-Glu-Lys-Lys-Arg-Ser-His-Leu], for the setting “absence of phospholipids, 500 μM PC142-155”, the inhibition at 500 µM is 87%.

Take “KRNRTFVLNFIKIPV-NH2 [PC311-325, Lys-Arg-Asn-Arg-Thr-Phe-Val-Leu-Asn-Phe-Ile-Lys-Ile-Pro-Val]”: the “rate of Factor Va inactivation (%Vi /min)” value (absence of phospholipids, 5 nM APC, 40 nM Va, 50 μM PC311-325) stood at 0.5 % Vi /min. For the setting “presence of phospholipid vesicles, read-out: half-maximal inhibition of the APC-catalyzed inactivation of Factor Va”, the IC50 came out at 6 µM. The inhibition at 50 µM (read-out: inhibition of APC activity) is 87%.

Values taken from patent publication US5968751A, “Method for detecting the presence of protein C antibody in a fluid sample” (The Scripps Research Institute, priority 1997, dated 1999).
